Source: US20260176289A1, “SMALL MOLECULE INHIBITORS OF KRAS PROTEINS” (Merck Sharp & Dohme LLC, priority 2022, published 2026)

Legend:
KRAS-WT = KRAS-WT (Homo sapiens, UniProt P01116); assay: SOS-catalyzed nucleotide exchange assay (Procedure A, TR-FRET), KRAS-WT; assay type: biochemical; settings: nucleotide exchange, read-out: KRAS WT GNE IC50
Summary of the method: (§1)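 TR-FRET readout (520/495 nm) of SOS-driven exchange of Bodipy-GDP for unlabeled GTP (3 mM) on biotinylated, Tb-streptavidin-bound RAS, after 60 min compound preincubation at room temperature. Exchange times and RAS/SOS levels: 60 min for WT (1/40 nM), G12C triple mutant (3/40 nM), NRAS (1.25/40 nM); 90 min for G12V (1.25/160 nM). Four-parameter logistic fits on normalized effect.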

AsPC-1 cells = assay: Cellular phospho-ERK assay, AsPC-1 cells (homozygous KRAS-G12D); assay type: cell-based; settings: Homo sapiens, ASPC1, 2 h, 2 hours compound incubation, read-out: AsPC1 pERK IC50
Summary of the method: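 Inhibition of ERK phosphorylation was determined after treating attached cells with compound for 2 h; top concentration 30 μM, serial 1:3 dilution. Each well's p-ERK:total ERK ratio, read by SureFire Ultra, was fitted with a four-parameter model for IC50.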

KRAS-G12D = KRAS-G12D (Homo sapiens, UniProt P01116, G12D); assay: SOS-catalyzed nucleotide exchange assay (Procedure A, TR-FRET), KRAS-G12D; assay type: biochemical; settings: nucleotide exchange, read-out: KRAS G12D GNE IC50
Summary of the method: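 Signal ratio (520/495 nm, excitation 340 nm) reports Bodipy-GDP retention on biotinylated RAS after SOS-catalyzed exchange with 3 mM GTP. SOS was 40 nM, except 160 nM for G12V. Room-temperature exchange lasted 60 min (90 min for G12V), following a 60 min compound preincubation.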

KRAS-G12V = KRAS-G12V (Homo sapiens, UniProt P01116, G12V); assay: SOS-catalyzed nucleotide exchange assay (Procedure A, TR-FRET), KRAS-G12V; assay type: biochemical; settings: nucleotide exchange, read-out: KRAS G12V GNE IC50
Summary of the method: as §1

Chain of KRAS-G12V (P01116 with tags, fused parts or gaps isoform P01116-2 G12V): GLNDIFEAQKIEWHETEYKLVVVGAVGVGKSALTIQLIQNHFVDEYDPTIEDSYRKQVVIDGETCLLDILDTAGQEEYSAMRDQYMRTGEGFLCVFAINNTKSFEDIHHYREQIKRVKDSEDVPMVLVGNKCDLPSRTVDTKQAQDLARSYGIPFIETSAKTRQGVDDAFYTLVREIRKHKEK
Chain of KRAS-WT (P01116 with tags, fused parts or gaps isoform P01116-2): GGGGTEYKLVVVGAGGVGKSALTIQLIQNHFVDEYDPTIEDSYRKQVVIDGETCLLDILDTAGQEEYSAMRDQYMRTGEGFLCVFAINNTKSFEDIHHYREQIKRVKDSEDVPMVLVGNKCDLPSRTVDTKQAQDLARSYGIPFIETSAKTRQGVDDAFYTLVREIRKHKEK
Chain of KRAS-G12D (P01116 with tags, fused parts or gaps isoform P01116-2 G12D): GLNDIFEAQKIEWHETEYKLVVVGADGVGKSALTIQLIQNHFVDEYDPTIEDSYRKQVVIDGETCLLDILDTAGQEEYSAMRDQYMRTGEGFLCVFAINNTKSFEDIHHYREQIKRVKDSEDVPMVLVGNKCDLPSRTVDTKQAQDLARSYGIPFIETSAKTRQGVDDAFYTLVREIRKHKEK

IC50 (KRAS-WT) [µM] | IC50 (AsPC-1 cells) [µM] | IC50 (KRAS-G12D) [µM] | IC50 (KRAS-G12V) [µM] | Compound
1.59 | 2.9 | 0.464 | 0.864 | CN1CC[C@H]2C(Oc3nc(N4CCOC[C@@](C)(O)C4)c4c(n3)sc3c(-c5c(C6CC6)c(Cl)cc6[nH]ncc56)nccc34)C[C@H]21 (stereo partly drawn) [Ex-216, (6S)-4-(8-(6-chloro-5-cyclopropyl-1H-indazol-4-yl)-2-(((1R,5R,6S)-2-methyl-2-azabicyclo [3.2.0]heptan-6-yl)-oxy)pyrido[4′,3′: 4,5]thieno[2,3-d]pyrimidin-4-yl)-6-methyl-1,4-oxaze-pam-6-ol]
0.104 | 0.246 | 0.0293 | 0.046 | C=C1CN2C[C@@H](F)C[C@@]2(COc2nc(N3CCOC[C@@](C)(O)C3)c3c(n2)sc2c(-c4c(C5CC5)c(Cl)cc5[nH]ncc45)nccc23)C1 [Ex-222, (6S)-4-(8-(6-chloro-5-cyclopropyl-1H-indazol-4-yl)-2-(((2S,7aR)-2-fluoro-6-methylenetetra-hydro-1H-pyrrol-izin-7a(5H)-yl)methoxy)pyrido [4′,3′:4,5]thieno[2,3-d]pyrimidin-4-yl)-6-methyl-1,4-oxaze-pan-6-ol]
0.0185 | 0.175 | 0.00656 | 0.0219 | C=C1CN2C[C@@H](OC)C[C@@]2(COc2nc(N3CCOC[C@@](C)(O)C3)c3c(n2)sc2c(-c4c(C5CC5)c(Cl)cc5[nH]ncc45)nccc23)C1 [Ex-227, (6S)-4-(8-(6-chloro-5-cyclopropyl-1H-indazol-4-yl)-2-(((25,7aR)-2-meth-oxy-6-methylene-tetrahydro-1H-pyrrolizin-7a(5H)-yl)methoxy)pyrido [4′,3′:4,5]thieno[2,3-d]pyrimidin-4-yl)-6-methyl-1,4-oxaze-pan-6-ol]
0.153 | 0.498 | 0.0101 | 0.0259 | C[C@@]1(O)COCCN(c2nc(OC[C@]3(CN4CCC5(CC4)CC5)CC3(F)F)nc3sc4c(-c5c(C6(F)CC6)c(Cl)cc6[nH]ncc56)nccc4c23)C1 [Ex-233, (6S)-4-(2-(((R)-1-((6-azaspiro[2.5]octan-6-yl)methyl)-2,2-difluorocyclopropyl)methoxy)-8-(6-chloro-5-(1-fluorocyclopropyl)-1H-indazol-4-yl)pyrido[4′,3′:4,5]thieno[2,3-d]pyrimidin-4-yl)-6-methyl-1,4-oxazepan-6-ol]
0.389 | 1.52 | 0.0274 | 0.107 | CC1(C)C2CN(C[C@@]3(COc4nc(N5CCOC[C@@](C)(O)C5)c5c(n4)sc4c(-c6c(C7(F)CC7)c(Cl)cc7[nH]ncc67)nccc45)CC3(F)F)CC21 (stereo partly drawn) [Ex-234, (6S)-4-(8-(6-chloro-5-(1-fluorocyclopropyl)-1H-indazol-4-yl)-2-(((1R)-1-((6,6-dimethyl-3-azabicyclo[3.1.0]hexan-3-yl)methyl)-2,2-difluorocyclopropyl)methoxy)pyrido[4′,3′:4,5]thieno[2,3-d]pyrimidin-4-yl)-6-methyl-1,4-oxazepan-6-ol]
0.0316 | 0.207 | 0.00386 | 0.0194 | C[C@@]1(O)COCCN(c2nc(OC[C@]3(CN4C[C@H]5COC[C@H]5C4)CC3(F)F)nc3sc4c(-c5c(C6(F)CC6)c(Cl)cc6[nH]ncc56)nccc4c23)C1 [Ex-235, (6S)-4-(8-(6-chloro-5-(1-fluorocyclopropyl)-1H-indazol-4-yl)-2-(((R)-2,2-difluoro-1-(((3aR,6aS)-tetrahydro-1H-furo[3,4-c]pyrrol-5(3H)-yl)methyl)cyclopropyl)metho-xy)pyrido[4′,3′:4,5]thieno[2,3-d]pyrimidin-4-yl)-6-methyl-1,4-oxazepan-6-ol]
0.121 | 0.242 | 0.0163 | 0.0348 | C[C@@]1(O)COCCN(c2nc(OC[C@]3(CN4C[C@@H]5C[C@H]4CO5)CC3(F)F)nc3sc4c(-c5c(C6(F)CC6)c(Cl)cc6[nH]ncc56)nccc4c23)C1 [Ex-236, (6S)-4-(2-(((R)-1-(((15,4S)-2-oxa-5-azabicyclo[2.2.1]heptan-5-yl)methyl)-2,2-difluorocyclopropyl)methoxy)-8-(6-chloro-5-(1-fluorocyclopropyl)-1H-indazol-4-yl)pyrido[4′,3′:4,5]thieno[2,3-d]pyrimidin-4-yl)-6-methyl-1,4-oxazepan-6-ol]
0.158 | 0.293 | 0.0249 | 0.0329 | C[C@@]1(O)COCCN(c2nc(OC[C@]3(CN4CC5CC5C4)CC3(F)F)nc3sc4c(-c5c(C6(F)CC6)c(Cl)cc6[nH]ncc56)nccc4c23)C1 (stereo partly drawn) [Ex-237, (6S)-4-(2-(((1R)-1-((3-azabicyclo[3.1.0]hexan-3-yl)methyl)-2,2-difluorocyclopropyl)methoxy)-8-(6-chloro-5-(1-fluorocyclopropyl)-1H-indazol-4-yl)pyrido[4′,3′:4,5]thieno[2,3-d]pyrimidin-4-yl)-6-methyl-1,4-oxazepan-6-ol]
0.446 | 4.12 | 0.112 | 0.4 | C[C@@]1(O)COCCN(c2nc(OC[C@]3(CN4CC(C#N)C4)CC3(F)F)nc3sc4c(-c5c(C6(F)CC6)c(Cl)cc6[nH]ncc56)nccc4c23)C1 [Ex-238, 1-(((IR)-1-(((8-(6-chloro-5-(1-fluorocyclopropyl)-1H-indazol-4-yl)-4-((S)-6-hydroxy-6-methyl-1,4-oxazepan-4-yl)pyrido[4′,3′:4,5]thieno[2,3-d]pyrimidin-2-yl)oxy)methyl)-2,2-difluorocyclopropyl)methyl]a-zetidine-3-carbonitrile]
1.86 | 1.41 | 0.0982 | 0.308 | C[C@H]1CN(C[C@@]2(COc3nc(N4CCOC[C@@](C)(O)C4)c4c(n3)sc3c(-c5c(C6(F)CC6)c(Cl)cc6[nH]ncc56)nccc34)CC2(F)F)[C@@H](C)CO1 [Ex-241, (6S)-4-(8-(6-chloro-5-(1-fluorocyclopropyl)-1H-indazol-4-yl)-2-(((R)-1-(((2S,5S)-2,5-dimethylmorpholino)methyl)-2,2-difluorocyclopropyl)methoxy)pyrido[4′,3′:4,5]thieno[2,3-d]pyrimidin-4-yl)-6-methyl-1,4-oxazepan-6-ol]
0.986 | 0.943 | 0.0873 | 0.333 | C[C@@H]1CN(C[C@@]2(COc3nc(N4CCOC[C@@](C)(O)C4)c4c(n3)sc3c(-c5c(C6(F)CC6)c(Cl)cc6[nH]ncc56)nccc34)CC2(F)F)CCO1 [Ex-243]
0.699 | 0.711 | 0.14 | 0.207 | C[C@H]1CN(C[C@@]2(COc3nc(N4CCOC[C@@](C)(O)C4)c4c(n3)sc3c(-c5c(C6(F)CC6)c(Cl)cc6[nH]ncc56)nccc34)CC2(F)F)CCO1 [Ex-244, (6S)-4-(8-(6-chloro-5-(1-fluorocyclopropyl)-1H-indazol-4-yl)-2-(((R)-2,2-difluoro-1-(((S)-2-methylmorpholino)methyl)cy-clopropyl)methoxy)pyrido[4′, 3′:4,5]thieno[2,3-d]pyrimidin-4-yl)-6-methyl-1,4-oxazepan-6-ol]
0.374 | 1.17 | 0.0968 | 0.275 | C[C@@H]1CN(C[C@@]2(COc3nc(N4CCOC[C@@](C)(O)C4)c4c(n3)sc3c(-c5c(C6(F)CC6)c(Cl)cc6[nH]ncc56)nccc34)CC2(F)F)C[C@H](C)O1 [Ex-246, (6S)-4-(8-(6-chloro-5-(1-fluorocyclopropyl)-1H-indazol-4-yl)-2-(((R)-1-(((2R,6S)-2,6-dimethylmorpholino)methyl)-2,2-difluorocyclopropyl)methoxy)pyrido[4′,3′:4,5]thieno[2,3-d]pyrimidin-4-yl)-6-methyl-1,4-oxazepan-6-ol]
0.352 | 0.977 | 0.0746 | 0.32 | C[C@@]1(O)COCCN(c2nc(OC[C@]3(CN4CCC[C@H]4CF)CC3(F)F)nc3sc4c(-c5c(C6(F)CC6)c(Cl)cc6[nH]ncc56)nccc4c23)C1 [Ex-247, (6S)-4-(8-(6-chloro-5-(1-fluorocyclopropyl)-1H-indazol-4-yl)-2-(((R)-2,2-difluoro-1-(((S)-2-(fluoromethyl)pyrrolidin-1-yl)methyl)cyclopropyl)metho-xy)pyrido[4′,3′:4,5]thieno[2,3-d]pyrimidin-4-yl)-6-methyl-1,4-oxazepan-6-ol]

Compound | IC50 (KRAS-WT) [µM] | IC50 (AsPC-1 cells) [µM] | IC50 (KRAS-G12D) [µM] | IC50 (KRAS-G12V) [µM]
C[C@@]1(O)COCCN(c2nc(OC[C@]3(CN4[C@@H]5CC[C@H]4C[C@@H](F)C5)CC3(F)F)nc3sc4c(-c5c(C6(F)CC6)c(Cl)cc6[nH]ncc56)nccc4c23)C1 [Ex-242, (6S)-4-(8-(6-chloro-5-(1-fluorocyclopropyl)-1H-indazol-4-yl)-2-(((R)-2,2-difluoro-1-(((1R,3R,5S)-3-fluoro-8-azabicyclo[3.2.1]octan-8-yl)methyl)cyclopropyl)metho-xy)pyrido[4′,3′:4,5]thieno[2,3-d]pyrimidin-4-yl)-6-methyl-1,4-oxazepan-6-ol] | 0.694 | 1.15 | 0.0907 | 0.348
